Results taken from patent US20250250559A1, “METHOD TO ANALYZE AND OPTIMIZE GENE EDITING MODULES AND DELIVERY APPROACHES” (Hoffmann-La Roche Inc., priority 2016, published 2025).
Values joined by “and” are separate entries in the source; they are usually repeats but may differ in a detail not shown here. Identical values can stand only once.

What was measured:
Type in all cases: cell-based, human
DPH1 gene [1] = assay: DT + PM double resistant colony count after DPH1 gene editing (integration with inactivation); conditions: DPH1 (gRNA length), TF eff. = 31%; for # of DT + PM resistant colonies (40,000 seeded cells): MCF7, individual samples A-D
Description: MCF7 cells (Brooks, et al. 1973) were originally obtained from ATCC (subsequently propagated in an in-house cell bank) and maintained in RPMI 1641 medium supplemented with 10% FCS, 2 mM L-Glutamine and penicillin/streptomycin at 37° C. and 85% humidity. For transfection of plasmids harboring gene-editing modules, 3,000,000 cells were seeded in a 10 cm diameter culture dish and cultivated at 37° C. and humidified 5% CO2. 24 h after seeding, cells were transfected with 20 μg total DNA using JetPEI (Polyplus) according to the manufacturer's protocol but with an N/P ratio of 6:1. Transfection efficiency was determined after 24 h by flow cytometry (FACS Calibur, BD biosciences) of cells that were transfected with a modified eGFP expression plasmid (Zhang, et al. 1996).
CRISPR/Cas module for targeted integration contains a puromycin (PM) resistance gene expression cassette without promoter to avoid transient expression. Thus, detection of integration of recombinant sequences into the genome was detected by determining sensitivity of cells towards PM. A concentration of 500 ng/μL PM (which quantitatively eliminates wildtype MCF7 cells) was applied to select MCF7 cells with stably integrated expression cassettes. PM-resistant colonies selected with the same procedure as described above for the DT selection and visualized and quantified (between 12 and 14 days after start of selection) in the same manner as described above for toxin resistant colonies. Number of PM resistant colonies obtained with non-target guide sequences (scrambled gRNA, FIG. 1) reflect the nonspecific integration background. Increase in colonies (above nonspecific background) obtained with target-gene gRNAs which are PM-resistant but toxin sensitive reflect integration into just one target allele, leaving the other dph1 or dph2 allele unaffected. PM resistant colonies that are also DT resistant have the expression cassette integrated into at least target allele and the other allele either inactivated or inactivated accompanied by yet another integration event.

DPH1 gene [2] = assay: PM resistant colony count after DPH1 gene editing (PAC cassette integration); conditions: for # of PM resistant colonies (40,000 seeded cells) / # of PM resistant colonies (40,000 seeded cells) (unheaded second sub-column: mean): DPH1 (gRNA length), TF eff. = 31%; for # of PM resistant colonies (40,000 seeded cells): MCF7, individual samples A-D; for integration efficacy in dependence on gRNA length: PMr colonies
Description: (§1) MCF7 cells (Brooks, et al. 1973) were originally obtained from ATCC (subsequently propagated in an in-house cell bank) and maintained in RPMI […] medium supplemented with 10% FCS, 2 mM L-Glutamine and penicillin/streptomycin at 37° C. and 85% humidity. For transfection of plasmids harboring gene-editing modules, 3,000,000 cells were seeded in a 10 cm diameter culture dish and cultivated at 37° C. and humidified 5% CO2. 24 h after seeding, cells were transfected with 20 μg total DNA using JetPEI (Polyplus) according to the manufacturer's protocol but with an N/P ratio of 6:1. Transfection efficiency was determined after 24 h by flow cytometry (FACS Calibur, BD biosciences) of cells that were transfected with a modified eGFP expression plasmid (Zhang, et al. 1996).
(§2) Plasmids encoding CRISPR/Cas9 gene-editing entities (i.e. knock-out and integration systems) against Dph1 (gRNA target sequence: […] (SEQ ID NO: 01) derived from RefSeq: NM_001383) and Dph2 (gRNA target sequence: […] (SEQ ID NO: 02) derived from RefSeq: NM_001039589, NM_001384), and scrambled control (gRNA sequence: […] (SEQ ID NO: 03)) were obtained from OriGene. This system comprises one plasmid expressing a ˜100 nt gRNA under control of a U6 promoter as well as Cas9 nuclease under control of a CMV promoter and a Donor plasmid with a promoter-less GFP/PM expression cassette flanked by homologous arms to the target gene (Dph1 or Dph2). Additional Dph1 gRNA sequence variants of different sizes (OriGene) […]
MCF7 cells which have all chromosomal copies of DPH1 or DPH2 inactivated are resistant to diphtheria toxin (Stahl, et al. 2015). Thus, occurrence and frequency of toxin resistant cells/colonies upon CRISPR/Cas inflicted gene inactivation provides a measure for efficiency of inactivation of all gene copies. Therefore, MCF/cells were transfected as described in Example 1 with (i) a GFP expression plasmid as transfection control, (ii) the CRISPR/Cas9 Dph1 or Dph2 knock-out/integration system and (iii) knock-out/integration entities containing a scrambled gRNA to determine Cas9 independent integration frequencies. After determination of transfection efficiency, cells were seeded in 6-well plates. […] RPMI medium was exchanged by RPMI medium containing DT or PM or both toxins 3 days after cell seeding. Exchange of medium was repeated every 2-3 days until all dead cells were removed from the plates and actively growing colonies could be detected via microscopic inspection. Thereafter (between day 12 and day 14 after start of toxin exposure), cells were washed 3 times with PBS and subsequently stained with ice cold methylene blue (0.2% in 50% EtOH). Methylene blue solution was subsequently removed and the plates were carefully washed under running water. Finally, cell colonies were counted under the microscope with a 5 mm grid foil.
CRISPR/Cas module for targeted integration contains a puromycin (PM) resistance gene expression cassette without promoter to avoid transient expression. Thus, detection of integration of recombinant sequences into the genome was detected by determining sensitivity of cells towards PM. A concentration of […] PM (which quantitatively eliminates wildtype MCF7 cells) was applied to select MCF7 cells with stably integrated expression cassettes. PM-resistant colonies selected with the same procedure as described above for the DT selection and visualized and quantified (between 12 and 14 days after start of selection) in the same manner as described above for toxin resistant colonies. Number of PM resistant colonies obtained with non-target guide sequences (scrambled gRNA, FIG. 1) reflect the nonspecific integration background. Increase in colonies (above nonspecific background) obtained with target-gene gRNAs which are PM-resistant but toxin sensitive reflect integration into just one target allele, leaving the other dph1 or dph2 allele unaffected. […]

DPH1 gene [3] = assay: DT resistant colony count after DPH1 gene editing (homozygous gene inactivation); conditions: for # of DT resistant colonies (20,000 seeded cells) / # of DT resistant colonies (20,000 seeded cells) (unheaded second sub-column: mean): DPH1 (gRNA length), TF eff. = 31%; for # of DT resistant colonies (20,000 seeded cells): MCF7, individual samples A-D
Description: as §1, §2
MCF7 cells which have all chromosomal copies of DPH1 or DPH2 inactivated are resistant to diphtheria toxin (Stahl, et al. 2015). Thus, occurrence and frequency of toxin resistant cells/colonies upon CRISPR/Cas inflicted gene inactivation provides a measure for efficiency of inactivation of all gene copies. Therefore, MCF/cells were transfected as described in Example 1 with (i) a GFP expression plasmid as transfection control, (ii) the CRISPR/Cas9 Dph1 or Dph2 knock-out/integration system and (iii) knock-out/integration entities containing a scrambled gRNA to determine Cas9 independent integration frequencies. After determination of transfection efficiency, cells were seeded in 6-well plates. For quantification of homozygous knock-out events by DT 20000 cells were seeded and for quantification of integration events by PM or both events 40000 cells were seeded. RPMI medium was exchanged by RPMI medium containing DT or PM or both toxins 3 days after cell seeding. Exchange of medium was repeated every 2-3 days until all dead cells were removed from the plates and actively growing colonies could be detected via microscopic inspection. Thereafter (between day 12 and day 14 after start of toxin exposure), cells were washed 3 times with PBS and subsequently stained with ice cold methylene blue (0.2% in 50% EtOH). Methylene blue solution was subsequently removed and the plates were carefully washed under running water. Finally, cell colonies were counted under the microscope with a 5 mm grid foil.
MCF7 cells which have all chromosomal copies of DPH1 inactivated are DT resistant. Thus, occurrence and frequency of DTr colonies upon ZFN inflicted gene inactivation and/or cassette integration provides a measure for efficacy of inactivation of all gene copies. The ZFN recognition sequence ([…], cleavage site, SEQ ID NO: 10) are derived from NM_001383.3 (DPH1-wt) and were obtained from Sigma Aldrich. A PAC integration cassette for this position was obtained from OriGene. MCF7 cells were transfected as described above with (i) a GFP expression plasmid, (ii) the plasmid encoding DPH1-targeting ZFN and (iii) the DPH1-targeting PAC-integration cassette. After determination of transfection efficiency, cells were seeded in 6-well plates. For quantification of homozygous knock-out events (DTr) 20,000 cells were seeded, 40,000 cells for quantification of integration events (PMr) or double resistances. […]

[4] = listed as 16 mer Dph1 CRISPR Cas9 gRNA
[5] = listed as 18 mer Dph1 CRISPR Cas9 gRNA
[6] = listed as 22 mer Dph1 CRISPR Cas9 gRNA
[7] = listed as 24 mer Dph1 CRISPR Cas9 gRNA

Substance	# of DT + PM resistant colonies (40,000 seeded cells) (DPH1 gene [1])	# of DT + PM resistant colonies (40,000 seeded cells) (unheaded second sub-column: mean) (DPH1 gene [1])	# of PM resistant colonies (40,000 seeded cells) (DPH1 gene [2])	# of PM resistant colonies (40,000 seeded cells) (unheaded second sub-column: mean) (DPH1 gene [2])	integration efficacy in dependence on gRNA length (DPH1 gene [2])	# of DT resistant colonies (20,000 seeded cells) (DPH1 gene [3])	# of DT resistant colonies (20,000 seeded cells) (unheaded second sub-column: mean) (DPH1 gene [3])	also measured
14 mer SpCa9 Dph1 gRNA: Dph1 gRNA sequence variant GGCCGAGACGGCCC with SpCas9 (listed as DNA, chemistry not given here)	0	0	6 and 10 and 8 and 9	8	not exceeding scrambled control background levels	0	0	# of PM resistant colonies (40,000 seeded cells) (DPH1 gene [2]; listed as 14 mer Dph1 CRISPR Cas9 gRNA): 6 and 10 and 8 and 9; DPH1 inactivation efficacy in dependence on gRNA length (DPH1 gene [3]; DTr colonies): below detection levels
16 mer SpCas9 Dph1 gRNA: Dph1 gRNA sequence variant GCGGCCGAGACGGCCC with SpCas9 (chemistry not given here)	7 and 9 (2×) and 10	8	21 and 26 (2×) and 25	25	Targeted integration clearly above background was observed	275 and 298 and 292 and 271	284	# of DT + PM resistant colonies (40,000 seeded cells) (DPH1 gene [1]; [4]): 7 and 9 (2×) and 10; # of PM resistant colonies (40,000 seeded cells) (DPH1 gene [2]; [4]): 21 and 26 (2×) and 25; # of DT resistant colonies (20,000 seeded cells) (DPH1 gene [3]; [4]): 275 and 298 and 292 and 271
18 mer SpCas9 Dph1 gRNA: Dph1 gRNA sequence variant GGGCGGCCGAGACGGCCC with SpCas9 (chemistry not given here)	10 and 12 and 7 and 11	10	19 and 25 and 27 and 22	23	Targeted integration clearly above background was observed	284 and 299 and 321 and 324	307	# of DT + PM resistant colonies (40,000 seeded cells) (DPH1 gene [1]; [5]): 10 and 12 and 7 and 11; # of PM resistant colonies (40,000 seeded cells) (DPH1 gene [2]; [5]): 19 and 25 and 27 and 22; # of DT resistant colonies (20,000 seeded cells) (DPH1 gene [3]; [5]): 284 and 299 and 321 and 324
22 mer SpCas9 Dph1 gRNA: Dph1 gRNA sequence variant AGCAGGGCGGCCGAGACGGCCC with SpCas9 (chemistry not given here)	6 and 5 (2×) and 4	5	14 and 12 and 11 and 15	13	Targeted integration clearly above background was observed	278 and 292 and 297 and 267	284	# of DT + PM resistant colonies (40,000 seeded cells) (DPH1 gene [1]; [6]): 6 and 5 (2×) and 4; # of PM resistant colonies (40,000 seeded cells) (DPH1 gene [2]; [6]): 14 and 12 and 11 and 15; # of DT resistant colonies (20,000 seeded cells) (DPH1 gene [3]; [6]): 278 and 292 and 297 and 267
24 mer SpCas9 Dph1 gRNA: Dph1 gRNA sequence variant GGAGCAGGGCGGCCGAGACGGCCC with SpCas9 (chemistry not given here)	2 and 4 and 3 (2×)	3	13 and 12 and 11 and 15	13	Targeted integration clearly above background was observed	237 and 252 and 228 and 211	232	# of DT + PM resistant colonies (40,000 seeded cells) (DPH1 gene [1]; [7]): 2 and 4 and 3 (2×); # of PM resistant colonies (40,000 seeded cells) (DPH1 gene [2]; [7]): 13 and 12 and 11 and 15; # of DT resistant colonies (20,000 seeded cells) (DPH1 gene [3]; [7]): 237 and 252 and 228 and 211
